According to patent publication US4454158A, “Allyl amine MAO inhibitors” (Merrell Toraude et Compagnie, priority 1981, dated 1984):
Where two headings read alike, the source gives them in different places.

Legend:
MAO-B versus MAO-A = conditions: literature figure; cited from earlier work
MAO [1] = assay: Inhibition of MAO - In vitro (14C p-tyramine substrate, partially purified rat brain mitochondria); type: biochemical; conditions: tested as hydrochloride salt, read-out: IC50 (MAO inhibitory activity - In vitro)
Description: (A) The ability of a compound of Formula I or II to inhibit MAO can be determined in vitro by the method of A. Christmas et al, Br. J. Pharmacol. 45, 490 (1972) in partially purified mitochondria from rat brain using ^14 C p-tyramine as the substrate.

MAO-A and MAO-B = conditions: literature, cited from earlier work
depression = conditions: literature; cited from earlier work
MAO [2] = assay: Time-dependence and reversibility of MAO inhibition (rat brain mitochondria, 14C p-tyramine); type: biochemical; conditions: phosphate buffer pH 7.2, 14C p-tyramine
Protocol: (B) The compounds of Formula I or II can be tested to determine whether or not the MAO inhibition follows time-dependent kinetics by the procedure described below:
Mitochondria are prepared from rat brain by homogenation in phosphate buffer (0.1 M, pH 7.2) followed by differential centrifugation. The mitochondria are suspended in the same buffer, the test compound is added at the desired concentration, and the system is incubated. At different time intervals, aliquots are taken and MAO activity is measured using ^14 C p-tyramine (a mixed substrate) as the substrate (See A. Christmas, et al, supra). When the compounds shown in Table I were tested according to the above-described procedure, the MAO inhibitory activity increased as a function of time of incubation. The initial rate of decrease of activity increased with increasing concentration of inhibitor.

[3] = test system: heart rate response to p-tyramine; conditions: rat, in vivo, iv
Protocol: (§1) The following test procedure can be employed to assess the potential of a compound of Formula I or II for producing the "cheese effect":
(§2) Rats are administered an intravenous injection of the test compound at various dosage levels, and 30 minutes later the rats are challenged with several intravenous or intraduodenal dodes of p-tyramine. The heart rate response is measured.

MAO [4] = assay: Inhibition of MAO - Ex vivo, rat (14C p-tyramine substrate); type: in vivo; conditions: for % Inhibition of MAO - Brain: 18 hr
Protocol: The ability of a compound of Formula I or II to inhibit MAO can be determined ex vivo by the following procedure:
The test compound is administered intraperitoneally (ip), intravenously (iv), or orally (po) to rats or mice and the animals are killed at various times after treatment. […] MAO activity is determined in the homogenates using ^14 C p-tyramine, as the substrate. […] Selectivity can be determined by repeating the above-described test using either ^14 C 5-hydroxytryptamine (for MAO-A) or ^14 C phenethylamine (for MAO-B) as the substrate for determining the % inhibition

[5] = test system: heart rate response to p-tyramine; assay: Cheese effect: potentiation of heart-rate response to p-tyramine in rats; conditions: rat, dose 0.1 (iv), p-tyramine i.d.
Protocol: as §1, §2

| SMILES | Selectivity (ratio of inhibitory activity against MAO-B versus MAO-A) (MAO-B versus MAO-A) | IC50 (MAO [1]) [nM] | preferential inhibition of MAO-A or MAO-B (in words) (MAO-A and MAO-B) | dose-dependence of MAO selectivity (in words) (MAO-A and MAO-B; lower vs higher dosages) | clinical effectiveness as antidepressant (in words) (depression) | time-dependent inhibitory kinetics (MAO [2]) | Potentiation of heart-rate response to p-tyramine [3] [fold] | % Inhibition of MAO - Duodenum (MAO [4]; 0.1 mg/kg iv, 2 hr) [%] | % Inhibition of MAO - Heart (MAO [4]; 0.1 mg/kg iv, 2 hr) [%] | % Inhibition of MAO - Brain (MAO [4]; 1.0 mg/kg po) [%] | % Inhibition of MAO - Brain (MAO [4]; 5.0 mg/kg po) [%] | Potentiation of heart-rate response to p-tyramine [5] [fold] |
| --- | --- | --- | --- | --- | --- | --- | --- | --- | --- | --- | --- | --- |
| C#CCN(C)Cc1ccccc1 [pargyline] | 10 | 2000 | MAO-B is preferentially inhibited | selective inhibitors at lower dosages, but are not selective inhibitors at higher dosages | clinically effective antidepressant agents | – | – | – | – | – | – | – |
| NC/C(=C\Cl)c1ccccc1 [(Z)-2-phenyl-3-chloroallylamine, (Z)-2-Phenyl-3-chloroallylamine] | – | 500000 | – | – | – | did not show time-dependent inhibitory kinetics | – | – | – | – | – | – |
| C#CCN(C)CCCOc1ccc(Cl)cc1Cl [clorgyline, reference compound] | – | 100 | – | – | clinically effective antidepressant agents | – | 5.2 | 87 | 84 | 20 | 64 | 5.6 |
